The values below come from patent publication US20220194951A1, “DIHYDROPYRIMIDINE COMPOUND AND APPLICATION THEREOF AS DRUG” (SUNSHINE LAKE PHARMA CO., LTD., priority 2019, published 2022).

In general, EC50 refers to the concentration needed to bring the measured effect to its halfway point. For orientation: AUC(0-t) means the area under the concentration-time curve up to a stated or last time point. Higher therefore signals more exposure. One may read the Tmax as the time from dosing to the highest level. A word on the bioavailability: it is the share of a dose that reaches the circulation, judged against a reference dose that is usually intravenous.

Series [1] deals with HBV. In words: Inhibition of HBV DNA replication in HepAD38 cells (qPCR method). The note with it: Hepatitis B virus, secreted virus DNA by qPCR. It is filed as cell-based. The text has this: Test 1: Evaluation of HepAD38 Cells on the Compound's Inhibitory Activity of HBV DNA Replication (qPCR Method)
HBV Cell Strain and Culture Conditions
HepAD38: Ladner et al. (Ladner, Otto et al. 1997) ligated the tetracycline-sensitive cytomegalovirus CMV promoter to the PBR322 plasmid and ligated it with the ayw subtype HBV DNA into the ptetHBV plasmid, and HepG2 cells were transfected to obtain the HepAD38 cell strain. Due to the destruction of the pre-C region gene, the yield of HBV DNA was about 11 times higher than that of HepG2.2.15 cells. Tetracycline could be used to regulate HBV replication, and the time required for culture was only half of that of HepG2.2.15 cells. It was suitable for studying the HBV replication process and replication intermediates and screening of anti-HBV drugs. HepAD38 was cultured in DMEM/F-12K medium containing 10% FBS and 1% double antibody (it also contained Tetracycline at a final concentration of 300 ng/ml and G418 at a final concentration of 400 μg/ml).
The virus particle DNA secreted by HepAD38 cells could be quantified by qPCR method, and thus the influence of the compound on virus replication could be detected.
(§1) Test of Anti HBV Activity In Vitro
After resuscitating the HepAD38 with a small number of passages, after the cells were in good condition, Tetracycline (final concentration of 300 ng/ml) and G418 (final concentration of 400 μg/ml) were added into the medium. […] After the cells were full, they were digested, counted, and diluted with DMEM/F-12K medium containing 10% FBS (containing Tetracycline at a final concentration of 300 ng/ml and G418 at a final concentration of 400 μg/ml, 1% double antibody) to a cell suspension of concentration of 2×10^5/mL. The cell suspension was seeded in a 96-well plate (the whole plate was covered) at 100 μL per well, and incubated at 37° C. in a constant temperature incubator with 5% CO2 for 24 h.
Compound preparation and cell treatment in antiviral experiments: the compound was dissolved with DMSO to 20 mM. Furthermore, the compound was diluted with DMSO to 800 μM, and then 8 dilutions at 4 fold were performed, the highest concentration was 800 μM. 1 μL of serially diluted compound was added to each well of the above-mentioned cell plate. The highest final concentration of the experiment was 4 μM (200 fold dilution). TDF (tenofovir disoproxil fumarate, Selleck, Cat S1400) was used as a positive control compound with a highest concentration of 4 μM. 1 μL of DMSO was added to the negative control wells to a final concentration of 0.5%.
The one-step hepatitis B virus nucleic acid quantitative determination kit for 48 people (PCR-fluorescent probe method) of Shengxiang Biotechnology was used for QPCR. 2.5 μL of supernatant was absorbed for Q-PCR, and the kit reagents were vortexed and mixed well after the reagents were melted before use. After centrifugation, the enzyme mixture was placed on ice for later use, and it was ensured that the subsequent steps were completed on the ice. 2.5 μL of sample release agent and 2.5 μL of test sample supernatant (experimental group, control group, standard curve group) were added to each well of the Q-PCR plate. After QPCR reaction, the copy number of virus DNA in each well was obtained. Graphpad Prism 5 software was used to process the concentration-virus copy number, and the EC50 of the compound against virus replication was calculated through a four-parameter nonlinear regression model.

For series [2], the system named is HBV. Nature of the series: Inhibition of HBV DNA replication in HepG2.2.15 cells (qPCR). Type of series: cell-based. The note with it: Hepatitis B virus, secreted virus DNA by qPCR. On the procedure:
Test 2: Evaluation of HepG2.2.15 Cells on the Compound's Inhibitory Activity of HBV DNA Replication
HBV Cell Line and Culture Conditions
The chromosomes of HepG2.2.15 cells (SELLS, PNAS, 1987 and SELLS, JV, 1988) integrated a complete HBV genome and stably expressed viral RNA and viral proteins. HepG2.2.15 cells could secrete mature hepatitis B virus particles, HBsAg and HBeAg into the culture medium. HepG2.2.15 cells were cultured in a DMEM medium containing 10% fetal bovine serum, 100 U/mL penicillin, 100 U/mL streptomycin, 1% non-essential amino acids, 1 mM sodium pyruvate and 300 µg/mL G418.
The virus particle DNA secreted by HepG2.2.15 cells could be quantified by qPCR method, and the influence of the compound on virus replication could be detected.
as §1
8,000 HepG 2.2.15 cells per well were seeded into a 96-well cell culture plate, the plate was cultured at 37° C. and 5% CO2 for 3 days until the cells grew to full wells. Old liquid medium was discard and replaced with 200 μL of new medium (5% FBS) on day 0. […]
Primers: HBV-For-202, […]; HBV-Rev-315, […]. […] Graphpad Prism 5 software was used to process the concentration-virus copy number, and the EC50 of the compound against virus replication was calculated through a four-parameter nonlinear regression model.
(In qPCR the cycle at which signal appears reflects the starting amount.)

Series [3] is described as follows: PK test on cynomolgus monkeys. It is filed as in vivo. The note with it: male, cynomolgus monkey, plasma; for bioavailability: read-out: F (absolute bioavailability). How it is done:
(4) PK Test on Cynomolgus Monkeys:
The PK test method of the compound in vivo of cynomolgus monkeys (purchased from Guangdong Chunsheng Biotechnology Development Co., Ltd., weight 3-6 kg, male, ages of 4-6 years, 3 per oral group, 3 per intravenous injection group):
The cynomolgus monkeys were administered intragastrically with the test compound at doses of 2.5 mg/kg or 5 mg/kg or administered intravenously with the test compound at doses of 0.5 mg/kg or 1 mg/kg.
Blood samples were taken at 0.083, 0.25, 0.5, 1, 2, 4, 6, 8 and 24 hours from vein after the administration, and collected in anticoagulation tube with EDTA-K2. After liquid-liquid extraction, the plasma sample was quantitatively analyzed on a triple quadrupole tandem mass spectrometer using multiple reactive ion monitoring (MRM). Pharmacokinetic parameters were calculated using a noncompartmental method by WinNonLin 6.3 software.

For `COC(=O)C1=C(CN2CCN3C(=O)N(c4ccc(C(=O)O)cc4F)C[C@@H]3C2)NC(c2nccs2)=N[C@H]1c1ccc(F)cc1Cl` [Example 1], in the series on HBV [1], a half-maximal response (EC50) required 0.02 µM.

Regarding `CCOC(=O)C1=C(CN2CCN3C(=O)N(c4ccc(C(=O)O)c(F)c4)C[C@@H]3C2)NC(c2nccs2)=N[C@H]1c1ccc(Cl)cc1Cl` [Example 8], a half-maximal effect in the series on HBV [1] (EC50) was put at 0.013 µM.

On to `CCOC(=O)C1=C(CN2CCN3C(=O)N(c4ccc(C(=O)O)cc4F)C[C@@H]3C2)NC(c2nccs2)=N[C@H]1c1ccc(F)cc1Br` [Example 3], for which the EC50 with HBV [1] is 0.031 µM. Against the preceding compound, the EC50 is about 2.4-fold higher.

In the case of `COC(=O)C1=C(CN2CCN3C(=O)N(c4ccc(C(=O)O)c(F)c4)C[C@@H]3C2)NC(c2nccs2)=N[C@H]1c1ccc(F)cc1Cl` [Example 2], in the series on HBV [1], the midpoint of the response, the EC50, lay at 0.01 µM. Moreover, it took 0.004 µM to reach a half-maximal effect in the series on HBV [2] (EC50). Also, in series [3] (iv, 0.5 mg/kg), the AUC(0-t) turned out to be 1020 ng·h/mL and the Tmax came to 4.98 min. For the same compound, in series [3] (po, 2.5 mg/kg), the AUC(0-t) turned out to be 3380 ng·h/mL, the Tmax was 30 min and the bioavailability turned out to be 64.8%.

In the series with HBV [1], `CCOC(=O)C1=C(CN2CCN3C(=O)N(c4ccc(C(=O)O)c(F)c4)C[C@@H]3C2)NC(c2nccs2)=N[C@H]1c1ccc(F)cc1Cl` [Example 6] returned an EC50 of 0.015 µM.

Take `CCOC(=O)C1=C(CN2CCN3C(=O)N(c4ccc(C(=O)O)c(F)c4)C[C@@H]3C2)NC(c2nccs2)=N[C@H]1c1ccc(F)cc1Br` [Example 4]: the response in the series with HBV [1] was half-maximal at 0.016 µM (EC50).

Compound `CCOC(=O)C1=C(CN2CCN3C(=O)N(c4ccc(C(=O)O)cc4F)C[C@@H]3C2)NC(c2nccs2)=N[C@H]1c1ccc(Cl)cc1Cl` [Example 7] yielded an EC50 with HBV [1] of 0.016 µM.

Turning to `COC(=O)C1=C(CN2CCN3C(=O)N(c4ccc(C(=O)O)cc4)C[C@@H]3C2)NC(c2nccs2)=N[C@H]1c1ccc(F)cc1Cl` [Control compound, 4-((S)-7-(((R)-6-(2-chloro-4-fluorophenyl)-5-(methoxycarbonyl)-2-(thiazol-2-yl)-3,6-dihydropyrimidin-4-yl)methyl)-3-oxohexahydroimidazo[1,5-a]pyrazine-2(3H)-yl)benzoic acid, reference compound], in series [3] (iv, 0.5 mg/kg), the AUC(0-t) is 720 ng·h/mL and the time of peak concentration (Tmax) was 4.98 min. In addition, in series [3] (po, 2.5 mg/kg), the area under the curve AUC(0-t) stood at 647 ng·h/mL, the Tmax turned out to be 90 min and the bioavailability was 23.6%.
